For one substance, Presence of defects results are on record in patent US20250171407A1, “ULTRAVIOLET ABSORBER” (BASF SE, priority 2022, published 2025).

The nature of this data set: Solubility test: visual assessment of defects in the dried paint of the stabilized coating formulation. The format is physicochemical. An excerpt: Each coating formulation A was stabilized with 1.0 or 3.0 active % based on resin solids of Tinuvin® 1130 (UV absorber, BASF SE), Tinuvin® 9945-DW (N) or inventive examples samples.
Each coating formulation further contained 1,0 active % based on resin solids of Tinuvin® 123DW (N) (HALS, BASF SE).
The clear coat formulations were subsequently applied by brush onto a wood substrate (thickness: two layers à 100 g/m^2 resulting after drying at room temperature in a final dry film thickness of ˜40 μm). The clear coat formulations were subsequently applied by draw-down onto a glass plate (thickness: one layer b 200 g/m^2 resulting after drying at room temperature in a final dry film thickness of ˜40 μm).
The solubility of above-described coating formulation containing one of the compounds obtained in examples 3, 11 and 27 in the amount given above was tested. The solubility was visually assessed qualitatively by presence of defects in the dried paint.

As for Tinuvin® 1130 [Example 27], the Presence of defects result is “no”.
